Reference: patent publication US4322416A, “10-Alkynyl steroids” (Merrell Dow Pharmaceuticals Inc., priority 1981, dated 1982)
“Also recorded” adds a separate entry of the source.

Tests used:
aromatase = conditions: microsomal enzyme preparations from human placenta; cited from earlier work
[1] = tested on: implantation in mated rats; conditions: cited from earlier work
[2] = tested on: estrogen production required for ovulation; conditions: rats; cited from earlier work
[3] = target: T1, aromatase (aromatase preparation; microsomal protein) (Homo sapiens, UniProt P11511); assay: biochemical
T1 sequence (P11511 1-503): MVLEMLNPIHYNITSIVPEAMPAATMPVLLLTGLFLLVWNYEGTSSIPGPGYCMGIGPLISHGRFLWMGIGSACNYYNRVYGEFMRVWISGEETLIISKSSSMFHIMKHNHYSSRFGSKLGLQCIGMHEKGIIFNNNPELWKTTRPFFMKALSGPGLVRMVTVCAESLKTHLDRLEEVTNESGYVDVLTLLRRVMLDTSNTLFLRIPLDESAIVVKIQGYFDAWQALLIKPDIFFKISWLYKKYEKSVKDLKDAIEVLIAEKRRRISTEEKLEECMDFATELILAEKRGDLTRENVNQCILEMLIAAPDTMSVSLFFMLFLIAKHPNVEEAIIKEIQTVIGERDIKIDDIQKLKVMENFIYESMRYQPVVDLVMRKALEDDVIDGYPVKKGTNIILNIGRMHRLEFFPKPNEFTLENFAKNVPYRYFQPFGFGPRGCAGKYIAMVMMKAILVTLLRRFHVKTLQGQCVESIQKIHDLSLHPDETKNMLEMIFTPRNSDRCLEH
Method: (§1) The aromatase inhibitory action of the compounds of the invention can be determined using a radioenzymatic assay. An aromatase enzyme preparation from the microsomal fraction isolated from human placenta is employed.
In this assay, the inhibitor is preincubated with enzyme prior to assaying for enzyme activity in the presence of high substrate levels.
In the time-dependent assay, an amount of the enzyme inhibitor in 100 μl of the assay buffer described above which will provide assay concentrations which are approximately one and ten times the IC50 values are added to 35 ml centrifuge tubes containing 600 μl of the NADPH generating system described above. The preincubation is started by the addition of 700 μl of aromatase preparation, usually 500-800 μg of microsomal protein per ml of assay buffer. These preparations are mixed using a vortex mixer and incubated for 0, 10, 20 or 40 minutes at 25° C. […] Following vortexing, the enzyme incubation is continued for 10 minutes before being terminated by the addition of chloroform. The amount of radioactivity in the aqueous fraction is determined by scintillation procedures. […] Therefore, the present enzyme inhibition is expressed as a percentage: [100 percent minus percent enzyme activity of inhibitor].
Compounds which show time-dependent inhibition are then assayed to establish the inhibition constant, Ki, which is the apparent dissociation constant for the enzyme-inhibitor complex. This determination requires measurements at initial velocities of enzyme reaction. […] The enzyme half-life (t1/2) at these different inhibitor concentrations ([In]) is used to determine the Ki by the linear regression equation of the t1/2 vs. 1/[In]. The Ki is equivalent to the inhibitor concentration when t1/2 is equal to zero.

[4] = target: T2, aromatase (microsomal fraction from human placenta) (Homo sapiens, UniProt P11511); assay: biochemical; type: biochemical
T2 construct: microsomal fraction isolated from human placenta; from tissue; host or cells: human placenta, microsomal fraction
T2 sequence (P11511 1-503): T1 sequence (P11511 1-503)
Method: as §1
Assay buffer contains 100 mM KCl, 10 mM KH2 PO4, 10 mM dithiothreitol and 1 mM EDTA at pH 8.0. […] Aromatase requires NADPH as a cofactor, therefore a generating system is included which uses 0.5 mM NADP^+, 2.5 mM glucose-6-phosphate, and 1.0 unit/ml of glucose-6-phosphate dehydrogenase in assay buffer. The enzyme reaction is initiated by the addition of 700 μl of aromatase preparation, usually 50 μg microsomal protein per ml of assay buffer. These preparations are mixed using a vortex mixer and incubated for 30 minutes at 37° C. with 95% O2 :5% CO2 gas phase in a Dubinoff shaking incubator.
The enzymatic reaction is terminated by the addition of CHCl3. After vortexing 20 seconds, aqueous/organic emulsions are dispersed and phase separation achieved following centrifugation at 600×g for 10 minutes. Duplicate 500 μl samples of the upper aqueous phase of each incubation sample are added to 10×75 mm culture tubes. […] The radioactivity of ^3 H2 O resulting from liberated 1β and 2β tritium atoms during the enzymatic reaction is determined by counting for 10 minutes in a liquid scintillation counter. […]

Structure (SMILES): C[C@]12C=CC(=O)C=C1C=C[C@@H]1[C@@H]2CC[C@]2(C)C(=O)CC[C@@H]12 [Androsta-1,4,6-triene-3,17-dione]
- identified as aromatase inhibitor (aromatase): identified as aromatase inhibitors
- preventing implantation [1]: effective in preventing implantation in mated rats

Structure (SMILES): CC(=O)OC1=C2CC[C@@H]3[C@H](CC[C@]4(C)C(=O)CC[C@@H]34)[C@@]2(C)CCC1=O [4-acetoxy-androst-4-ene-3,17-dione]
- identified as aromatase inhibitor (aromatase): identified as aromatase inhibitors
- preventing estrogen production required for ovulation [2]: effective in preventing estrogen production required for ovulation in rats

Structure (SMILES): C[C@]12CCC(=O)C(O)=C1CC[C@@H]1[C@@H]2CC[C@]2(C)C(=O)CC[C@@H]12 [4-hydroxy-androst-4-ene-3,17-dione]
- identified as aromatase inhibitor (aromatase): identified as aromatase inhibitors

Structure (SMILES): C#CC[C@]12CCC(=O)C=C1CC[C@@H]1[C@@H]2CC[C@]2(C)C(=O)CC[C@@H]12 [10-(2-propynyl)estr-4-ene-3,17-dione]
- Ki [3]: 8.9 nM
- affinity for the enzyme site relative to that of the natural substrate testosterone ([3]; Ki vs. Km of testosterone): five times greater
- irreversible binding to / irreversible inhibition of aromatase ([3]; time-dependent inhibition, in words): irreversibly bound to the enzyme
- IC50 [4]: 4.2 nM
- enzyme affinity compared with known inhibitors [4]: greater enzyme affinity than other known inhibitors; also recorded: superior to known aromatase inhibitors
